{"source": "ChEMBL document CHEMBL4680316", "about": "“JNK selective inhibitor, IQ-1S, protects the mice against lipopolysaccharides-induced sepsis” (2021)", "key": {"Mus musculus [1]": {"test_system": "Mus musculus", "test": "Antiinflammatory activity in wild type C57BL/6 mouse model of LPS and D-galactosamine-induced sepsis assessed as survival of organism at 50 to 200 ug, iv administered 2 hrs before LPS and D-galactosamine administration and observed for 20 hrs", "assay_type": "functional, organism-based", "details": "dose 50-200 µg, time 22.0 hrs"}, "Mus musculus [2]": {"test_system": "Mus musculus", "test": "Antiinflammatory activity in C57BL/6 mouse model of LPS-induced sepsis assessed as CD4 cells in spleen at 200 ug, iv administered 2 hrs after LPS administration and measured after 10 hrs of post LPS administration by flow cytometry analysis (reference value: 23.8 %)", "assay_type": "functional", "details": "dose 200 µg; time 8 hrs"}, "Mus musculus [3]": {"test_system": "Mus musculus", "test": "Antiinflammatory activity in C57BL/6 mouse model of LPS-induced sepsis assessed as CD8+ cells in spleen at 200 ug, iv administered 2 hrs after LPS administration and measured after 10 hrs of post LPS administration by flow cytometry analysis (reference value: 13 %)", "assay_type": "functional", "details": "dose 200 µg; time 8 hrs"}, "Mus musculus [4]": {"test_system": "Mus musculus", "test": "Antiinflammatory activity in C57BL/6 mouse model of LPS-induced sepsis assessed as neutrophils in spleen at 200 ug, iv administered 2 hrs after LPS administration and measured after 10 hrs of post LPS administration by flow cytometry analysis (reference value: 24.8 %)", "assay_type": "functional", "details": "dose 200 µg; time 8 hrs"}, "Mus musculus [5]": {"test_system": "Mus musculus", "test": "Antiinflammatory activity in C57BL/6 mouse model of LPS-induced sepsis assessed as macrophages in spleen at 200 ug, iv administered 2 hrs after LPS administration and measured after 10 hrs of post LPS administration by flow cytometry analysis (reference value: 9.69 %)", "assay_type": "functional", "details": "dose 200 µg; time 8 hrs"}, "Mus musculus [6]": {"test_system": "Mus musculus", "test": "Antiinflammatory activity in wild type C57BL/6 mouse model of LPS and D-galactosamine-induced sepsis assessed as decrease in area of immune cells in lungs at 50 to 200 ug, ip administered 2 hrs after LPS and D-galactosamine administration and measured after 10 hrs of post LPS administration by H and E staining based imaging analysis", "assay_type": "functional, organism-based", "details": "dose 50-200 µg, time 8.0 hrs"}, "Mus musculus [7]": {"test_system": "Mus musculus", "test": "Antiinflammatory activity in wild type C57BL/6 mouse model of LPS and D-galactosamine-induced sepsis assessed as decrease in serum TNF-alpha level at 50 to 200 ug, ip administered 2 hrs after LPS and D-galactosamine administration and measured after 10 hrs of post LPS administration by ELISA", "assay_type": "functional, organism-based", "details": "dose 50-200 µg, time 8.0 hrs"}, "Mus musculus [8]": {"test_system": "Mus musculus", "test": "Antiinflammatory activity in wild type C57BL/6 mouse model of LPS and D-galactosamine-induced sepsis assessed as decrease in serum IL-6 level at 50 to 200 ug, ip administered 2 hrs after LPS and D-galactosamine administration and measured after 10 hrs of post LPS administration by ELISA", "assay_type": "functional, organism-based", "details": "dose 50-200 µg, time 8.0 hrs"}, "Mus musculus [9]": {"test_system": "Mus musculus", "test": "Antiinflammatory activity in wild type C57BL/6 mouse model of LPS and D-galactosamine-induced sepsis assessed as decrease in serum IL-1beta level at 50 to 200 ug, ip administered 2 hrs after LPS and D-galactosamine administration and measured after 10 hrs of post LPS administration by ELISA", "assay_type": "functional, organism-based", "details": "dose 50-200 µg, time 8.0 hrs"}, "BMDM [10]": {"test_system": "BMDM", "test": "Antiinflammatory activity in LPS-induced sepsis C57BL/6 mouse BMDM cells assessed as reduction in IL-6 mRNA expression at 1 uM treated 1 hr before LPS stimulation and measured after 2 and 6 hrs by qRT-PCR analysis", "assay_type": "functional, cell-based", "details": "time 2-6 hrs"}, "BMDM [11]": {"test_system": "BMDM", "test": "Antiinflammatory activity in LPS-induced sepsis C57BL/6 mouse BMDM cells assessed as reduction in IL-1beta mRNA expression at 1 uM treated 1 hr before LPS stimulation and measured after 2 and 6 hrs by qRT-PCR analysis", "assay_type": "functional, cell-based", "details": "time 2-6 hrs"}, "BMDM [12]": {"test_system": "BMDM", "test": "Antiinflammatory activity in LPS-induced sepsis C57BL/6 mouse BMDM cells assessed as reduction in TNF-alpha mRNA expression at 1 uM treated 1 hr before LPS stimulation and measured after 2 and 6 hrs by qRT-PCR analysis", "assay_type": "functional, cell-based", "details": "time 2-6 hrs"}, "BMDM [13]": {"test_system": "BMDM", "test": "Antiinflammatory activity in LPS-induced sepsis C57BL/6 mouse BMDM cells assessed as reduction in IL-6 secretion at 1 uM treated 1 hr before LPS stimulation and measured after 12 and 24 hrs by ELISA", "assay_type": "functional, cell-based", "details": "time 12-24 hrs"}, "BMDM [14]": {"test_system": "BMDM", "test": "Antiinflammatory activity in LPS-induced sepsis C57BL/6 mouse BMDM cells assessed as reduction in IL-1beta secretion at 1 uM treated 1 hr before LPS stimulation and measured after 12 and 24 hrs by ELISA", "assay_type": "functional, cell-based", "details": "time 12-24 hrs"}, "BMDM [15]": {"test_system": "BMDM", "test": "Antiinflammatory activity in LPS-induced sepsis C57BL/6 mouse BMDM cells assessed as reduction in TNF-alpha secretion at 1 uM treated 1 hr before LPS stimulation and measured after 12 and 24 hrs by ELISA", "assay_type": "functional, cell-based", "details": "time 12-24 hrs"}, "BMDM [16]": {"test_system": "BMDM", "test": "Antiinflammatory activity in CpG-induced sepsis C57BL/6 mouse BMDM cells assessed as reduction in IL-6 mRNA expression at 1 uM treated 1 hr before CpG stimulation by qRT-PCR analysis", "assay_type": "functional, cell-based"}, "BMDM [17]": {"test_system": "BMDM", "test": "Antiinflammatory activity in CpG-induced sepsis C57BL/6 mouse BMDM cells assessed as reduction in IL-1beta mRNA expression at 1 uM treated 1 hr before CpG stimulation by qRT-PCR analysis", "assay_type": "functional, cell-based"}, "BMDM [18]": {"test_system": "BMDM", "test": "Antiinflammatory activity in CpG-induced sepsis C57BL/6 mouse BMDM cells assessed as reduction in TNF-alpha mRNA expression at 1 uM treated 1 hr before CpG stimulation by qRT-PCR analysis", "assay_type": "functional, cell-based"}, "BMDM [19]": {"test_system": "BMDM", "test": "Antiinflammatory activity in CpG-induced sepsis C57BL/6 mouse BMDM cells assessed as reduction in IL-6 secretion at 1 uM treated 1 hr before CpG stimulation and measured after 12 and 24 hrs by ELISA", "assay_type": "functional, cell-based", "details": "time 12-24 hrs"}, "BMDM [20]": {"test_system": "BMDM", "test": "Antiinflammatory activity in CpG-induced sepsis C57BL/6 mouse BMDM cells assessed as reduction in IL-1beta secretion at 1 uM treated 1 hr before CpG stimulation and measured after 12 and 24 hrs by ELISA", "assay_type": "functional, cell-based", "details": "time 12-24 hrs"}, "BMDM [21]": {"test_system": "BMDM", "test": "Antiinflammatory activity in CpG-induced sepsis C57BL/6 mouse BMDM cells assessed as reduction in TNF-alpha secretion at 1 uM treated 1 hr before CpG stimulation and measured after 12 and 24 hrs by ELISA", "assay_type": "functional, cell-based", "details": "time 12-24 hrs"}, "BMDM [22]": {"test_system": "BMDM", "test": "Induction of IL-4-induced polarization of C57BL/6 mouse BMDM cells to M2 assessed as Arg mRNA expression at 1 uM pretreated for 1 hr by qRT-PCR analysis", "assay_type": "functional, cell-based"}, "BMDM [23]": {"test_system": "BMDM", "test": "Induction of IL-4-induced polarization of C57BL/6 mouse BMDM cells to M2 assessed as Mrc mRNA expression at 1 uM pretreated for 1 hr by qRT-PCR analysis", "assay_type": "functional, cell-based"}, "BMDM [24]": {"test_system": "BMDM", "test": "Inhibition of JNK signalling in LPS-induced sepsis wild type C57BL/6 mouse BMDM cells assessed as reduction in AP-1 expression at 1 uM pretreated for 1 hr by Western blot assay", "assay_type": "cell-based"}, "BMDM [25]": {"test_system": "BMDM", "test": "Inhibition of JNK signalling in LPS-induced sepsis wild type C57BL/6 mouse BMDM cells assessed as reduction in NF-kappaB expression at 1 uM pretreated for 1 hr by Western blot assay", "assay_type": "cell-based"}, "BMDM [26]": {"test_system": "BMDM", "test": "Inhibition of JNK signalling in LPS-induced sepsis wild type C57BL/6 mouse BMDM cells assessed as reduction in JNK-2 phosphorylation at 1 uM pretreated for 1 hr by Western blot assay", "assay_type": "cell-based"}, "BMDM [27]": {"test_system": "BMDM", "test": "Inhibition of JNK signalling in LPS-induced sepsis wild type C57BL/6 mouse BMDM cells assessed as reduction in p38 phosphorylation at 1 uM pretreated for 1 hr by Western blot assay", "assay_type": "cell-based"}, "BMDM [28]": {"test_system": "BMDM", "test": "Inhibition of JNK signalling in LPS-induced sepsis wild type C57BL/6 mouse BMDM cells assessed as reduction in IkappaBalpha phosphorylation at 1 uM pretreated for 1 hr by Western blot assay", "assay_type": "cell-based"}, "BMDM [29]": {"test_system": "BMDM", "test": "Inhibition of JNK signalling in LPS-induced sepsis wild type C57BL/6 mouse BMDM cells assessed as reduction in IKKbeta phosphorylation at 1 uM pretreated for 1 hr by Western blot assay", "assay_type": "cell-based"}, "BMDM [30]": {"test_system": "BMDM", "test": "Antiinflammatory activity in CpG-induced sepsis C57BL/6 mouse BMDM cells harboring JNK assessed as reduction in IL-6 mRNA expression at 1 uM pretreated for 1 hr by qRT-PCR analysis", "assay_type": "functional, cell-based"}, "BMDM [31]": {"test_system": "BMDM", "test": "Antiinflammatory activity in CpG-induced sepsis C57BL/6 mouse BMDM cells harboring JNK assessed as reduction in TNF mRNA expression at 1 uM pretreated for 1 hr by qRT-PCR analysis", "assay_type": "functional, cell-based"}, "BMDM [32]": {"test_system": "BMDM", "test": "Antiinflammatory activity in CpG-induced sepsis C57BL/6 mouse BMDM cells harboring JNK assessed as reduction in Nos2 mRNA expression at 1 uM pretreated for 1 hr by qRT-PCR analysis", "assay_type": "functional, cell-based"}}, "note": "The source made the active and inactive calls. The calls are words filed in the database; no cut-off is given here.", "data": [{"smiles": "[Na+].[O-]/N=C1/c2ccccc2-c2nc3ccccc3nc21", "values": [{"measurement": "Activity", "setting": "Mus musculus [1]", "value": "Active"}, {"measurement": "Activity", "setting": "Mus musculus [2]", "value": 17.2, "unit": "%"}, {"measurement": "Activity", "setting": "Mus musculus [3]", "value": 9.2, "unit": "%"}, {"measurement": "Activity", "setting": "Mus musculus [4]", "value": 18.8, "unit": "%"}, {"measurement": "Activity", "setting": "Mus musculus [5]", "value": 8.6, "unit": "%"}, {"measurement": "Activity", "setting": "Mus musculus [6]", "value": "Active"}, {"measurement": "Activity", "setting": "Mus musculus [7]", "value": "Active"}, {"measurement": "Activity", "setting": "Mus musculus [8]", "value": "Active"}, {"measurement": "Activity", "setting": "Mus musculus [9]", "value": "Active"}, {"measurement": "Activity", "setting": "BMDM [10]", "value": "Active"}, {"measurement": "Activity", "setting": "BMDM [11]", "value": "Active"}, {"measurement": "Activity", "setting": "BMDM [12]", "value": "Active"}, {"measurement": "Activity", "setting": "BMDM [13]", "value": "Active"}, {"measurement": "Activity", "setting": "BMDM [14]", "value": "Active"}, {"measurement": "Activity", "setting": "BMDM [15]", "value": "Active"}, {"measurement": "Activity", "setting": "BMDM [16]", "value": "Active"}, {"measurement": "Activity", "setting": "BMDM [17]", "value": "Active"}, {"measurement": "Activity", "setting": "BMDM [18]", "value": "Active"}, {"measurement": "Activity", "setting": "BMDM [19]", "value": "Active"}, {"measurement": "Activity", "setting": "BMDM [20]", "value": "Active"}, {"measurement": "Activity", "setting": "BMDM [21]", "value": "Active"}, {"measurement": "Activity", "setting": "BMDM [22]", "value": "inactive"}, {"measurement": "Activity", "setting": "BMDM [23]", "value": "inactive"}, {"measurement": "inhibition", "setting": "BMDM [24]", "value": "Active"}, {"measurement": "inhibition", "setting": "BMDM [25]", "value": "inactive"}, {"measurement": "inhibition", "setting": "BMDM [26]", "value": "Active"}, {"measurement": "inhibition", "setting": "BMDM [27]", "value": "Active"}, {"measurement": "inhibition", "setting": "BMDM [28]", "value": "Active"}, {"measurement": "inhibition", "setting": "BMDM [29]", "value": "Active"}, {"measurement": "Activity", "setting": "BMDM [30]", "value": "Active"}, {"measurement": "Activity", "setting": "BMDM [31]", "value": "Active"}, {"measurement": "Activity", "setting": "BMDM [32]", "value": "Active"}]}]}
